Assay results taken from ChEMBL document CHEMBL1201862, “PubChem BioAssay data set” (2004).
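Tested at 5 concentrations; 48 h exposure; 96-well plates; endpoints linearly interpolated, else capped at highest concentration. The concentration for 50% growth inhibition is given as GI50.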 Activity calls are given as the source filed them. Rule as the data show it: active = GI50 up to about 1.1 µM and inactive = higher.

Key:
Assay in all cases: DTP human tumour cell line panel, 48 h
[1] = test system: 786-0
[2] = test system: A498
[3] = test system: A549
[4] = test system: ACHN
[5] = test system: BT-549
[6] = test system: CAKI-1
[7] = test system: CCRF-CEM
[8] = test system: COLO 205
[9] = test system: DU-145
[10] = test system: EKVX
[11] = test system: HCC 2998
[12] = test system: HCT-116
[13] = test system: HCT-15
[14] = test system: HL-60
[15] = test system: HOP-62
[16] = test system: HOP-92
[17] = test system: HT-29
[18] = test system: Hs-578T
[19] = test system: IGROV-1
[20] = test system: K562
[21] = test system: KM12
[22] = test system: LOX IMVI
[23] = test system: M14
[24] = test system: MCF7
[25] = test system: MDA-MB-231
[26] = test system: MDA-MB-435
[27] = test system: MDA-N
[28] = test system: MOLT-4
[29] = test system: Malme-3M
[30] = test system: NCI-H226
[31] = test system: NCI-H23
[32] = test system: NCI-H460
[33] = test system: NCI-H522
[34] = test system: NCI/ADR-RES
[35] = test system: OVCAR-3
[36] = test system: OVCAR-4
[37] = test system: OVCAR-5
[38] = test system: OVCAR-8
[39] = test system: PC-3
[40] = test system: RPMI-8226
[41] = test system: RXF 393
[42] = test system: SF-268
[43] = test system: SF-295
[44] = test system: SF-539
[45] = test system: SK-MEL-28
[46] = test system: SK-MEL-2
[47] = test system: SK-MEL-5
[48] = test system: SK-OV-3
[49] = test system: SN12C
[50] = test system: SNB-19
[51] = test system: SNB-75
[52] = test system: SR
[53] = test system: SW-620
[54] = test system: T47D
[55] = test system: TK-10
[56] = test system: U-251
[57] = test system: UACC-257
[58] = test system: UACC-62
[59] = test system: UO-31

In the case of `CN(C)c1ccc(C(=N/N=C2\C(=O)Nc3ccccc32)c2ccc(N(C)C)cc2)cc1`, the GI50 [1] is reported as 0.859 µM (active), the GI50 [2] is reported as 1.96 µM (inactive) and the GI50 [3] is reported as 0.625 µM (active). The GI50 [4] was 1.04 µM (active), the GI50 [5] was 0.938 µM (active) and the GI50 [6] was 0.39 µM (active). For the same compound, the GI50 [7] was 0.935 µM (active), the GI50 [8] was 0.358 µM (active) and the GI50 [9] was 1.91 µM (inactive). For the same compound, the GI50 [10] was 5.15 µM (inactive), the GI50 [11] was 0.643 µM (active) and the GI50 [12] was 0.33 µM (active). The GI50 [13] was 0.188 µM, the GI50 [14] was 0.363 µM (active) and the GI50 [15] was 0.933 µM (active). The GI50 [16] was 12.8 µM (inactive), the GI50 [17] was 0.348 µM (active) and the GI50 [18] was 0.836 µM (active). For the same compound, the GI50 [19] was 0.303 µM (active), the GI50 [20] was 0.196 µM (active) and the GI50 [21] was 0.278 µM (active). For the same compound, the GI50 [22] was 0.748 µM (active), the GI50 [23] was 0.348 µM (active) and the GI50 [24] was 0.266 µM (active). The GI50 [25] was 0.767 µM (active), the GI50 [26] was 0.0214 µM (active) and the GI50 [27] was 0.0614 µM (active). For the same compound, the GI50 [28] was 0.422 µM (active), the GI50 [29] was 2.17 µM (inactive) and the GI50 [30] was 6.89 µM (inactive). For the same compound, the GI50 [31] was 1.73 µM (inactive), the GI50 [32] was 0.405 µM (active) and the GI50 [33] was 0.167 µM (active). For the same compound, the GI50 [34] was 0.218 µM (active), the GI50 [35] was 0.513 µM (active) and the GI50 [36] was 1.94 µM (inactive). The GI50 [37] was 3.72 µM (inactive), the GI50 [38] was 1 µM (active) and the GI50 [39] was 1.58 µM (inactive). The GI50 [40] was 0.22 µM (active), the GI50 [41] was 0.172 µM (active) and the GI50 [42] was 0.942 µM (active). For the same compound, the GI50 [43] was 0.308 µM (active), the GI50 [44] was 0.313 µM (active) and the GI50 [45] was 3.17 µM (inactive). The GI50 [46] was 0.248 µM (active), the GI50 [47] was 0.417 µM (active) and the GI50 [48] was 1.37 µM (inactive). For the same compound, the GI50 [49] was 1.67 µM (inactive), the GI50 [50] was 1.22 µM (inactive) and the GI50 [51] was 0.214 µM (active). The GI50 [52] was 0.0262 µM (active), the GI50 [53] was 0.247 µM (active) and the GI50 [54] was 0.771 µM (active). For the same compound, the GI50 [55] was 1.73 µM (inactive), the GI50 [56] was 0.49 µM (active) and the GI50 [57] was 24.5 µM (inactive). For the same compound, the GI50 [58] was 0.37 µM (active) and the GI50 [59] was 2.01 µM (inactive).
For `CC(NNC(=O)c1cc[n+]([BH2-]C#N)cc1)c1ccccc1` (configuration not stated), the GI50 [1] was > 100 µM (inactive), the GI50 [2] was > 100 µM (inactive) and the GI50 [3] was > 100 µM (inactive). For the same compound, the GI50 [4] was > 100 µM (inactive), the GI50 [5] was > 100 µM (inactive) and the GI50 [6] was > 100 µM (inactive). For the same compound, the GI50 [7] was > 100 µM (inactive), the GI50 [8] was > 100 µM (inactive) and the GI50 [9] was > 100 µM (inactive). The GI50 [10] was > 100 µM (inactive), the GI50 [11] was > 100 µM (inactive) and the GI50 [12] was > 100 µM (inactive). For the same compound, the GI50 [13] was greater than 100 µM, the GI50 [14] was > 100 µM (inactive) and the GI50 [15] was > 100 µM (inactive). The GI50 [16] was > 100 µM (inactive), the GI50 [17] was > 100 µM (inactive) and the GI50 [18] was > 100 µM (inactive). The GI50 [19] was > 100 µM (inactive), the GI50 [20] was > 100 µM (inactive) and the GI50 [21] was > 100 µM (inactive). The GI50 [22] was > 100 µM (inactive), the GI50 [23] was > 100 µM (inactive) and the GI50 [24] was > 100 µM (inactive). The GI50 [25] was > 100 µM (inactive), the GI50 [26] was > 100 µM (inactive) and the GI50 [27] was > 100 µM (inactive). For the same compound, the GI50 [28] was > 100 µM (inactive), the GI50 [29] was > 100 µM (inactive) and the GI50 [30] was > 100 µM (inactive). The GI50 [31] was > 100 µM (inactive), the GI50 [32] was > 100 µM (inactive) and the GI50 [33] was > 100 µM (inactive). The GI50 [34] was > 100 µM (inactive), the GI50 [35] was > 100 µM (inactive) and the GI50 [36] was > 100 µM (inactive). The GI50 [37] was > 100 µM (inactive), the GI50 [38] was > 100 µM (inactive) and the GI50 [39] was > 100 µM (inactive). The GI50 [40] was > 100 µM (inactive), the GI50 [41] was > 100 µM (inactive) and the GI50 [42] was > 100 µM (inactive). The GI50 [43] was > 100 µM (inactive), the GI50 [44] was > 100 µM (inactive) and the GI50 [45] was > 100 µM (inactive). For the same compound, the GI50 [46] was > 100 µM (inactive), the GI50 [47] was > 100 µM (inactive) and the GI50 [48] was > 100 µM (inactive). For the same compound, the GI50 [49] was > 100 µM (inactive), the GI50 [50] was > 100 µM (inactive) and the GI50 [51] was > 100 µM (inactive). For the same compound, the GI50 [52] was > 100 µM (inactive), the GI50 [53] was > 100 µM (inactive) and the GI50 [54] was > 100 µM (inactive). The GI50 [55] was > 100 µM (inactive), the GI50 [56] was > 100 µM (inactive) and the GI50 [57] was > 100 µM (inactive). For the same compound, the GI50 [58] was > 100 µM (inactive) and the GI50 [59] was > 100 µM (inactive).
For `O=C(Nc1sccc1S(=O)(=O)c1ccc(Cl)cc1)c1ccc(Cl)cc1`, the GI50 [1] was 52.7 µM (inactive), the GI50 [2] was > 100 µM (inactive) and the GI50 [3] was 94.8 µM (inactive). The GI50 [4] was 99.1 µM (inactive), the GI50 [5] was > 100 µM (inactive) and the GI50 [6] was 80.4 µM (inactive). The GI50 [7] was > 100 µM (inactive), the GI50 [8] was > 100 µM (inactive) and the GI50 [9] was > 100 µM (inactive). For the same compound, the GI50 [10] was 31 µM (inactive), the GI50 [11] was > 100 µM (inactive) and the GI50 [12] was > 100 µM (inactive). The GI50 [13] was greater than 100 µM, the GI50 [14] was > 100 µM (inactive) and the GI50 [15] was 39.4 µM (inactive). For the same compound, the GI50 [16] was 73.1 µM (inactive), the GI50 [17] was > 100 µM (inactive) and the GI50 [18] was 51.3 µM (inactive). For the same compound, the GI50 [19] was > 100 µM (inactive), the GI50 [20] was > 100 µM (inactive) and the GI50 [21] was > 100 µM (inactive). For the same compound, the GI50 [22] was > 100 µM (inactive), the GI50 [23] was > 100 µM (inactive) and the GI50 [24] was 99.8 µM (inactive). For the same compound, the GI50 [25] was 35.2 µM (inactive), the GI50 [26] was > 100 µM (inactive) and the GI50 [27] was > 100 µM (inactive). For the same compound, the GI50 [28] was > 100 µM (inactive), the GI50 [29] was 50.6 µM (inactive) and the GI50 [30] was > 100 µM (inactive). The GI50 [31] was 68.5 µM (inactive), the GI50 [32] was 56.5 µM (inactive) and the GI50 [33] was > 100 µM (inactive). For the same compound, the GI50 [34] was > 100 µM (inactive), the GI50 [35] was > 100 µM (inactive) and the GI50 [36] was 25.6 µM (inactive). The GI50 [37] was > 100 µM (inactive), the GI50 [38] was 63 µM (inactive) and the GI50 [39] was 25.9 µM (inactive). The GI50 [40] was > 100 µM (inactive), the GI50 [41] was 65.6 µM (inactive) and the GI50 [42] was 65.9 µM (inactive). The GI50 [43] was 34 µM (inactive), the GI50 [44] was 39.9 µM (inactive) and the GI50 [45] was > 100 µM (inactive). The GI50 [46] was 59.8 µM (inactive), the GI50 [47] was 74.3 µM (inactive) and the GI50 [48] was 52.6 µM (inactive). The GI50 [49] was > 100 µM (inactive), the GI50 [50] was 44.2 µM (inactive) and the GI50 [51] was 31.8 µM (inactive). The GI50 [52] was > 100 µM (inactive), the GI50 [53] was > 100 µM (inactive) and the GI50 [54] was > 100 µM (inactive). For the same compound, the GI50 [55] was 50.8 µM (inactive), the GI50 [56] was 31 µM (inactive) and the GI50 [57] was > 100 µM (inactive). For the same compound, the GI50 [58] was > 100 µM (inactive) and the GI50 [59] was 86.3 µM (inactive).
